Source: ChEMBL document CHEMBL6103538, “Carbonic anhydrases: Moiety appended derivatives, medicinal and pharmacological implications” (Bioorg Med Chem, 2024)
Values belong to the molecule of their own block, whether it stands above or below them.

Columns and labels:
MCF7 [1] = assay: Cytotoxicity against human MCF7 cells assessed as reduction in cell viability incubated for 24 hrs by MTT assay; assay type: functional, cell-based; conditions: MCF7, 24 h
Carbonic anhydrase 2 [2] = target: T1, Carbonic anhydrase 2 (Homo sapiens, UniProt P00918); assay: Binding affinity to human CA II assessed as inhibition constant pre-incubated for 15 mins by stopped-flow CO2-hydrase assay method
Carbonic anhydrase 2 [3] = target: T1, Carbonic anhydrase 2; assay: Binding affinity to human CA II assessed as inhibition constant
Carbonic anhydrase 1 [4] = target: T2, Carbonic anhydrase 1 (Homo sapiens, UniProt P00915); assay: Binding affinity to human CA I assessed as inhibition constant
Carbonic anhydrase 12 [5] = target: T3, Carbonic anhydrase 12 (Homo sapiens, UniProt O43570); assay: Binding affinity to human CA XII assessed as inhibition constant
Carbonic anhydrase 9 [6] = target: T4, Carbonic anhydrase 9 (Homo sapiens, UniProt Q16790); assay: Binding affinity human CA IX assessed as inhibition constant
[7] = target: Carbonic anhydrase 5B, mitochondrial (Homo sapiens, UniProt Q9Y2D0); assay: Binding affinity to human CA VB-catalysed CO2 hydration activity assessed as inhibition constant pre-incubated for 15 mins by stopped-flow instrument method
MDA-MB-231 [8] = assay: Anticancer activity against human MDA-MB-231 cells assessed as reduction in cell viability measured after 72 hrs by MTT assay; assay type: functional, cell-based; conditions: MDA-MB-231, 72 h
MCF7 [9] = assay: Anticancer activity against human MCF7 cells assessed as reduction in cell viability measured after 72 hrs by MTT assay; assay type: functional, cell-based; conditions: MCF7, 72 h
HepG2 [10] = assay: Anticancer activity against human HepG2 cells assessed as reduction in cell viability measured after 72 hrs by MTT assay; assay type: functional, cell-based; conditions: HepG2, 72 h
Carbonic anhydrase 1 [11] = target: T2, Carbonic anhydrase 1; assay: Binding affinity to human CA I assessed as inhibition constant by spectrophotometric analysis
Carbonic anhydrase 1 [12] = target: T2, Carbonic anhydrase 1; assay: Binding affinity to human Carbonic anhyrase 1 assessed as inhibition constant pre-incubated for 10 mins by stopped-flow instrument based assay
Carbonic anhydrase 2 [13] = target: T1, Carbonic anhydrase 2; assay: Binding affinity to human Carbonic anhyrase 2 assessed as inhibition constant pre-incubated for 10 mins by stopped-flow instrument based assay
Carbonic anhydrase 2 [14] = target: T1, Carbonic anhydrase 2; assay: Inhibition of human Carbonic anhydrase 2
A549 = assay: Antiproliferative activity against human A549 cells assessed as reduction in cell viability by SRB assay; assay type: functional, cell-based
MCF7 [15] = assay: Antiproliferative activity against human MCF7 cells assessed as reduction in cell viability by SRB assay; assay type: functional, cell-based
HepG2 [16] = assay: Antiproliferative activity against human HepG2 cells assessed as reduction in cell viability by SRB assay; assay type: functional, cell-based
MDA-MB-231 [17] = assay: Anticancer activity against human MDA-MB-231 cells assessed as reduction in cell viability under normoxia condition; assay type: functional, cell-based
[18] = Inhibition of Hsp70 (unknown origin); set-up: species or system Homo sapiens
MCF7 [19] = assay: Anticancer activity against human MCF7 cells assessed as reduction in cell viability under hypoxia condition; assay type: functional, cell-based
MDA-MB-231 [20] = assay: Anticancer activity against human MDA-MB-231 cells assessed as reduction in cell viability under hypoxia condition; assay type: functional, cell-based
MCF7 [21] = assay: Anticancer activity against human MCF7 cells assessed as reduction in cell viability under normoxia condition; assay type: functional, cell-based
PC-3 = assay: Cytotoxicity against human PC-3 cells assessed as reduction in cell viability incubated for 24 hrs by MTT assay; assay type: functional, cell-based; conditions: PC-3, 24 h
HT-29 = assay: Cytotoxicity against human HT-29 cells assessed as reduction in cell viability incubated for 24 hrs by MTT assay; assay type: functional, cell-based; conditions: HT-29, 24 h
MCF7 [22] = assay: cells; assay type: functional, cell-based; conditions: Homo sapiens
HCT-116 = assay: cells; assay type: functional, cell-based; conditions: Homo sapiens
Description: Cytotoxicity against human HCT-116 cells

Carbonic anhydrase 4 = Carbonic anhydrase 4 (Homo sapiens, UniProt P22748); assay: Binding affinity to human CA4 assessed as inhibition constant
Homo sapiens [23] = organism: Homo sapiens; assay: Selectivity ratio of IC50 for human CA I to IC50 for human CA II
Carbonic anhydrase 1 [24] = target: T2, Carbonic anhydrase 1; assay: Inhibition of human Carbonic anhydrase 1
Homo sapiens [25] = organism: Homo sapiens; assay: Selectivity ratio of IC50 for human CA IX to IC50 for human CA II
Carbonic anhydrase 2 [26] = target: T1, Carbonic anhydrase 2; assay: Binding affinity to human CA II assessed as inhibition constant by spectrophotometric analysis
Carbonic anhydrase 9 [27] = target: T4, Carbonic anhydrase 9; assay: Binding affinity to human recombinant CA IX assessed as inhibition constant
Carbonic anhydrase 12 [28] = target: T3, Carbonic anhydrase 12; assay: Binding affinity to human recombinant CA XII assessed as inhibition constant
Carbonic anhydrase 9 [29] = target: T4, Carbonic anhydrase 9; assay: Inhibition of human Carbonic anhydrase IX

T3 sequence (O43570 whole entry): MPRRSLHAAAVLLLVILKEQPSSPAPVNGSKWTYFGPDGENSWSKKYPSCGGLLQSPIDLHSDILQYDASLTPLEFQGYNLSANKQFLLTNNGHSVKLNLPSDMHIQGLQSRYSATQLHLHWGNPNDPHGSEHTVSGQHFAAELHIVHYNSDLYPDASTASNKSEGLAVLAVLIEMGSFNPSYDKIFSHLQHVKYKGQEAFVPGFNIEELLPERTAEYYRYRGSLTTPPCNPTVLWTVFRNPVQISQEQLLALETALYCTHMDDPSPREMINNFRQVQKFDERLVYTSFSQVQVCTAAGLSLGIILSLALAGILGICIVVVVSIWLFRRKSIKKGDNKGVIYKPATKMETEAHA
T2 sequence (P00915 whole entry): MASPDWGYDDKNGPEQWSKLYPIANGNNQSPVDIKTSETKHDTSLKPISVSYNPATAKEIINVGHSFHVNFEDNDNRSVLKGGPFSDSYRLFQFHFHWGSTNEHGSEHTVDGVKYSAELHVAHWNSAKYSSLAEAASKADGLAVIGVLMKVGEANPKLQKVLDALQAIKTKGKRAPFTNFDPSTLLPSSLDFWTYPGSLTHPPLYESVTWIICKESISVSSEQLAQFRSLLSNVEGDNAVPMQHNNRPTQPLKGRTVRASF
Carbonic anhydrase 5B, mitochondrial, sequence (Q9Y2D0 whole entry): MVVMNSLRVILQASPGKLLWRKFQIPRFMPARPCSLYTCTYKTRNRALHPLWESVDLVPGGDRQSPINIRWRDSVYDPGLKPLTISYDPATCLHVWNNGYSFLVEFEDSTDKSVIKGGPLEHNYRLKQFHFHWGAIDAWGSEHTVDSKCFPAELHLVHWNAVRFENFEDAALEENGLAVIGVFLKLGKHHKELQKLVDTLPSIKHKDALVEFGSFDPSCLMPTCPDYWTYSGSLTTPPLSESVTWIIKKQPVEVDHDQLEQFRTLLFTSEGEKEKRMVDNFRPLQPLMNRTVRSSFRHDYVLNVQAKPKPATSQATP
Carbonic anhydrase 4, sequence (P22748 whole entry): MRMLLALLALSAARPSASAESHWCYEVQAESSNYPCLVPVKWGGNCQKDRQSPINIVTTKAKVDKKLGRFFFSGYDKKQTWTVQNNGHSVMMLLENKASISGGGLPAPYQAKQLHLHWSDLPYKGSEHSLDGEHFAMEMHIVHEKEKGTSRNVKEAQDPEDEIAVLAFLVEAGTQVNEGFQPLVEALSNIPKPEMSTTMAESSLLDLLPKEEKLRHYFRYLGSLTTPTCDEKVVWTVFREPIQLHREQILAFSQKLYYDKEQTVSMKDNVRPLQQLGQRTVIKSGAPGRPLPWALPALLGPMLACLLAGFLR

Ki (Carbonic anhydrase 2 [3]): 0.00816 µM
SMILES: N=C(N)NS(=O)(=O)c1ccc(/N=N/Nc2c(F)c(F)c(F)c(F)c2F)cc1

Ki (Carbonic anhydrase 12 [5]): 0.019 µM
Ki (Carbonic anhydrase 9 [6]): 0.0138 µM
Ki (Carbonic anhydrase 2 [3]): 0.0086 µM
SMILES: CCOC(=O)c1sc2ncnc(Nc3ccc(S(N)(=O)=O)cc3)c2c1C

Ki (Carbonic anhydrase 2 [3]): 0.00736 µM
Ki (Carbonic anhydrase 1 [4]): 0.0385 µM
SMILES: CCOC(=O)c1sc(NC(=O)c2ccc(S(N)(=O)=O)cc2)nc1C(F)(F)F

IC50 (Carbonic anhydrase 2 [14]): 0.0212 µM
SMILES: NS(=O)(=O)c1ccc(CCNC(=O)c2ccc3c(c2)C(=O)c2ccccc2C3=O)cc1

IC50 (MCF7 [22]): 1.69 µM
Ki (Carbonic anhydrase 9 [6]): 0.019 µM
IC50 (HCT-116): 1.3 µM
SMILES: Cc1nn(-c2ccc(S(N)(=O)=O)cc2)c2c1C(c1ccc(F)cc1F)C(C#N)=C(N)O2 (stereo unspecified)

IC50 (MCF7 [22]): 1.88 µM
Ki (Carbonic anhydrase 9 [6]): 0.012 µM
IC50 (HCT-116): 4.62 µM
SMILES: COc1ccc(C2C(C#N)=C(N)Oc3c2c(C)nn3-c2ccc(S(N)(=O)=O)cc2)cc1O (stereo unspecified)

Ki (Carbonic anhydrase 9 [6]): 0.0161 µM
SMILES: Cc1sc2ncnc(Nc3ccc(S(N)(=O)=O)cc3)c2c1C

Ki (Carbonic anhydrase 12 [5]): 0.0091 µM
IC50 (MDA-MB-231 [17]): 6.3 µM
Ki (Carbonic anhydrase 9 [6]): 0.0041 µM
IC50 [18]: 19.4 µM
IC50 (MCF7 [19]): 14.4 µM
IC50 (MDA-MB-231 [20]): 12.5 µM
IC50 (MCF7 [21]): 4.6 µM
SMILES: COc1cccc(NC(=O)Nc2ccc(S(N)(=O)=O)cc2)c1

Ki (Carbonic anhydrase 1 [4]): 0.0361 µM
SMILES: Cn1c(N)c(NCc2ccc(Br)cc2O)c(=O)n(C)c1=O

Ki (Carbonic anhydrase 2 [3]): 0.0163 µM
SMILES: Cn1c(N)c(NCc2cc(I)ccc2O)c(=O)n(C)c1=O

Ki (Carbonic anhydrase 2 [3]): 0.00597 µM
Ki (Carbonic anhydrase 1 [4]): 0.0498 µM
SMILES: NS(=O)(=O)c1ccc(C(=O)Nc2nc(C(=O)OCCN3CCOCC3)cs2)cc1

Ki [7]: 0.516 µM
SMILES: Cc1ccc(C)c(NC(=O)SOS(N)(=O)=O)c1

Ki (Carbonic anhydrase 1 [4]): 0.0406 µM
SMILES: C/C(=N\Nc1nc(-c2ccc(C)cc2)cs1)c1nnn(-c2ccc(S(N)(=O)=O)cc2)c1C

Second part, the molecule before the results:

SMILES: Cc1ccc(C(C)C)cc1OCc1cn(CCCCCCOc2ccc3ccc(=O)oc3c2)nn1
IC50 (MCF7 [1]): 2.48 µM

SMILES: NS(=O)(=O)c1ccc(-c2ccc(-c3cnc(C(=O)N4CCNCC4)o3)s2)cc1
Ki (Carbonic anhydrase 2 [2]): 0.004 µM

SMILES: CC(=O)c1ccc(N/N=N/c2ccc(S(=O)(=O)NC(=N)N)cc2)cc1
Ki (Carbonic anhydrase 1 [4]): 0.00644 µM

SMILES: Cc1ccc(NC(=O)SOS(N)(=O)=O)cc1
Ki [7]: 0.462 µM

SMILES: COc1ccccc1NC(=O)SOS(N)(=O)=O
Ki [7]: 0.345 µM

SMILES: NS(=O)(=O)c1ccc(C(=O)Nc2ncc(C(=O)NCCN3CCOCC3)s2)cc1
Ki (Carbonic anhydrase 2 [3]): 0.00651 µM
Ki (Carbonic anhydrase 1 [4]): 0.0459 µM

SMILES: NS(=O)(=O)c1ccc(NC(=S)NC(=O)c2ccc3c(c2)C(=O)c2ccccc2C3=O)cc1
IC50 (MDA-MB-231 [8]): 46.2 µM
IC50 (MCF7 [9]): 69.4 µM
IC50 (HepG2 [10]): 28.1 µM

SMILES: O=C(NC(=S)Nc1ccc(S(=O)(=O)Nc2nccs2)cc1)c1ccc(F)cc1
Ki (Carbonic anhydrase 1 [11]): 0.014 µM

SMILES: NS(=O)(=O)c1ccc(-n2cc(Cn3cc(/C=C/C(=O)c4ccc(Br)cc4)c4ccccc43)nn2)cc1
Ki (Carbonic anhydrase 1 [12]): 0.0188 µM
Ki (Carbonic anhydrase 2 [13]): 0.468 µM

SMILES: CCOc1ccccc1NC(=O)SOS(N)(=O)=O
Ki [7]: 0.271 µM

SMILES: CC(=O)C(C)/C(C)=N/NC(=O)C12CC3CC(CC(C3)C1)C2 (stereo unspecified)
IC50 (A549): < 5 µM
IC50 (MCF7 [15]): < 5 µM
IC50 (HepG2 [16]): < 5 µM

SMILES: COc1cccc(NC(=O)Nc2cccc(OC)c2)c1
IC50 (MDA-MB-231 [17]): 6.3 µM
IC50 [18]: 15.3 µM
IC50 (MCF7 [19]): 1.1 µM
IC50 (MDA-MB-231 [20]): 12.4 µM
IC50 (MCF7 [21]): 3.7 µM

SMILES: Cc1ccc(C(C)C)c(OCc2cn(CCCCOc3ccc4ccc(=O)oc4c3)nn2)c1
IC50 (PC-3): 9.4 µM
IC50 (HT-29): 12.1 µM

SMILES: Cc1ccc(C(=O)/C=C/c2cn(Cc3cn(-c4ccc(S(N)(=O)=O)cc4)nn3)c3ccccc23)cc1
Ki (Carbonic anhydrase 1 [12]): 0.0504 µM
Ki (Carbonic anhydrase 2 [13]): 0.0362 µM

SMILES: Cc1c(/C=N/Nc2nc(-c3ccc(F)cc3)cs2)nnn1-c1cccc(S(N)(=O)=O)c1
Ki (Carbonic anhydrase 4): 0.088 µM

SMILES: CCCCCCCCn1c2ccccc2c2cc(/N=C/c3cccc(O)c3O)ccc21
IC50 (Carbonic anhydrase 2 [14]): 21.8 µM

SMILES: O=C(NC(=S)Nc1ccc(S(=O)(=O)Nc2nccs2)cc1)c1ccccc1
Ki (Carbonic anhydrase 1 [11]): 0.0207 µM

SMILES: COC(=O)[C@H]1O[C@@H](NC(=O)c2ccc(S(N)(=O)=O)cc2)[C@H](O)[C@@H](O)[C@@H]1O
Ratio IC50 (Homo sapiens [23]): 44.4

SMILES: NC1=C(n2c(-c3ccc(Cl)cc3)cs/c2=N\C(=O)c2c(F)cccc2F)C(=O)c2ccccc2C1=O
Ki (Carbonic anhydrase 1 [4]): 0.0679 µM

SMILES: NS(=O)(=O)c1ccc(C(=O)Nc2nc(C(=O)OCCCN3CCOCC3)cs2)cc1
Ki (Carbonic anhydrase 2 [3]): 0.00692 µM
Ki (Carbonic anhydrase 1 [4]): 0.0273 µM

SMILES: CCCCCCCCn1c2ccccc2c2cc(/N=C/c3ccc(O)c(O)c3)ccc21
IC50 (Carbonic anhydrase 1 [24]): 32.1 µM

SMILES: Cc1nn(-c2ccc(S(N)(=O)=O)cc2)c2c1C(c1c(F)cccc1F)C(C#N)=C(N)O2 (stereo unspecified)
Ratio IC50 (Homo sapiens [25]): 7.42
Ratio IC50 (Homo sapiens [23]): 14.3
Ki (Carbonic anhydrase 9 [6]): 0.019 µM

SMILES: COc1ccc(-c2cs/c(=N\C(=O)c3c(F)cccc3F)n2C2=C(N)C(=O)c3ccccc3C2=O)cc1
Ki (Carbonic anhydrase 2 [3]): 0.0553 µM

SMILES: Cc1ccnc(NS(=O)(=O)c2ccc(NC(=S)NC(=O)c3ccc(F)cc3)cc2)n1
Ki (Carbonic anhydrase 2 [26]): 0.00815 µM

SMILES: Nc1nn(C(=O)C23CC4CC(CC(C4)C2)C3)c(N)c1/N=N/c1ccccc1
Ki (Carbonic anhydrase 9 [27]): 0.085 µM
IC50 (MCF7 [15]): < 5 µM
IC50 (HepG2 [16]): < 5 µM
Ki (Carbonic anhydrase 12 [28]): 0.14 µM

SMILES: Clc1ccccc1-c1nc2cc(-c3ccc4[nH]c(-c5ccccc5Cl)nc4c3)ccc2[nH]1
IC50 (Carbonic anhydrase 9 [29]): 5.23 µM

SMILES: COc1cccc(C(=O)/C=C/c2cn(Cc3cn(-c4ccc(S(N)(=O)=O)cc4)nn3)c3ccccc23)c1
Ki (Carbonic anhydrase 1 [12]): 0.0383 µM
Ki (Carbonic anhydrase 2 [13]): 0.716 µM

SMILES: Cc1ccc(-c2c(/C=N/NC(=O)C34CC5CC(CC(C5)C3)C4)n[nH]c2-c2ccccc2)cc1
IC50 (A549): < 5 µM
IC50 (MCF7 [15]): < 5 µM
IC50 (HepG2 [16]): < 5 µM
